From publication PMC6131557, “Selective Cytotoxicity of Dihydroorotate Dehydrogenase Inhibitors to Human Cancer Cells Under Hypoxia and Nutrient-Deprived Conditions” (Frontiers in Pharmacology, 2018)

Molecular target: T1, human dihydroorotate dehydrogenase (HsDHODH) (Homo sapiens, UniProt Q02127)
T1 construct: made in house
Assay: Inhibition of recombinant human DHODH enzyme activity
Format: biochemical
Conditions: for inhibition at 1 µM: at 1,000 nM, read-out: Inhibition of HsDHODH activity (value in parentheses); for IC50: recombinant human DHODH, purified enzyme fixed at 10 nM, read-out: IC50 (nM), inhibition of human DHODH; for fold increase in the IC50 in comparison to 3: HsDHODH IC50 versus compound 3

T1 sequence (Q02127 whole entry): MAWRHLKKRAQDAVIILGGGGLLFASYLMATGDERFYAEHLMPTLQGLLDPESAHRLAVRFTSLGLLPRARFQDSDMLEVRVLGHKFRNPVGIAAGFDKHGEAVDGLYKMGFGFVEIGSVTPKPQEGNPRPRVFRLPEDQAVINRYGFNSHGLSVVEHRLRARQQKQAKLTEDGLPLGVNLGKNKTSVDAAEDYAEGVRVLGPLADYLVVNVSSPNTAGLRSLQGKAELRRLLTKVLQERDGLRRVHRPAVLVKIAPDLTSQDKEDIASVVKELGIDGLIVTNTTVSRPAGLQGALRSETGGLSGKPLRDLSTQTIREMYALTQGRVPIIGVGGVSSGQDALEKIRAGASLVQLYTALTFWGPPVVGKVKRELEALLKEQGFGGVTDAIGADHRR

Row | Structure (SMILES) | HsDHODH inhibition activity (in words) | inhibition at 1 µM [%] | IC50 [nM] | fold increase in the IC50 in comparison to 3 [fold]
1 | CCCCC/C(C)=C/Cc1c(O)c(Cl)c(C)c(C=O)c1O [Compound 17] |  |  | 71.4 ± 2.4 | 
2 | C/C(=C\COC(=O)C(C)(C)C)CC/C(C)=C/Cc1c(O)c(Cl)c(C)c(C=O)c1O [Compound 11] |  |  | 67.2 ± 2.8 | 
3 | Cc1c(Cl)c(O)c(CCC(C)CCCC(C)COC(=O)C(C)(C)C)c(O)c1C=O (stereo not drawn) [Compound 14] | abolished | 35 | > 1000 | 
4 | CC(C)=CCC/C(C)=C/Cc1c(O)c(Cl)c(C)c(C=O)c1O [Compound 3, colletochlorin B] |  |  | 74.1 ± 22 | 

Further lines, results first:

Row | HsDHODH inhibition activity (in words) | inhibition at 1 µM [%] | IC50 [nM] | fold increase in the IC50 in comparison to 3 [fold] | Structure (SMILES)
5 | lost | 3 | > 1000 |  | CC(=O)c1c(C)c(Cl)c(O)c(C/C=C(\C)CC/C=C(\C)C2CC(=O)C(C)(C)O2)c1O (stereo not drawn) [Compound 19]
6 |  | 36 | > 1000 | > 13 | CC(C)=CCC/C(C)=C/Cc1c(O)c(Cl)cc(C=O)c1O [Compound 24]
7 |  | 3 | > 1000 |  | COc1c(Cl)c(C)c(C=O)c(O)c1C/C=C(\C)CC/C=C(\C)[C@@H]1CC(=O)C(C)(C)O1 [Compound 21]
8 |  |  | 3530 |  | C/C(=C\Cc1c(O)c(Cl)c(C)c(CO)c1O)CC/C=C(\C)COC(=O)C(C)(C)C [Compound 20]
9 |  | 20 | > 1000 | > 13 | CC(C)=CCC/C(C)=C/Cc1c(O)cc(C)c(C=O)c1O [Compound 22, Colletorin B]
